Measured values reported in the supplement of paper PMC5908809.

Columns and labels:
[1] = test system: normal NK cells expanded with K562-aAPC; assay: drug sensitivity score (DSS) (DSS units); higher = more sensitive; extreme values may be limits of the assay; conditions: 72 h; IL-2 2.5 ng/mL
Description: (§1)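 Drug sensitivity and resistance testing on K562-aAPC-expanded normal NK cells: 5 concentrations (10-fold steps over a 10,000-fold range), 72 h at 37 °C, viability by CellTiter-Glo normalised to DMSO and benzethonium chloride controls; DSS from the fitted curve.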

NK-YS (IL-2 2.5 ng/mL) [2] = assay: as above; conditions: 72 h
YT (IL-2 2.5 ng/mL) [3] = assay: as above; conditions: 72 h
KAI3 (IL-2 2.5 ng/mL) [4] = assay: as above; conditions: 72 h
NKL (IL-2 2.5 ng/mL) [5] = assay: as above; conditions: 72 h
[6] = test system: normal primary NK cells, pool 1 (3 donors) (IL-2 2.5 ng/mL); assay: as above; conditions: 72 h
DERL-7 (IL-2 2.5 ng/mL) [7] = assay: as above; conditions: 72 h
[8] = test system: normal primary NK cells, pool 3 (3 donors) (IL-2 2.5 ng/mL); assay: as above; conditions: 72 h
NK-92 (IL-2 2.5 ng/mL) [9] = assay: as above; conditions: 72 h
SNK-6 (IL-2 2.5 ng/mL) [10] = assay: as above; conditions: 72 h
[11] = test system: normal primary NK cells, pool 2 (3 donors) (IL-2 2.5 ng/mL); assay: as above; conditions: 72 h
[12] = test system: normal primary NK cells, pool 1 (3 donors), resting (IL-2 0 ng/mL); assay: as above; conditions: 72 h
KHYG-1 (IL-2 2.5 ng/mL) [13] = assay: as above; conditions: 72 h
IMC-1 (IL-2 20 ng/mL) [14] = assay: as above; conditions: 72 h
NK-YS (IL-2 2.5 ng/mL) [15] = assay: percent inhibition of viability; higher = more inhibition; conditions: 72 h
YT (IL-2 2.5 ng/mL) [16] = assay: as above; conditions: 72 h
KAI3 (IL-2 2.5 ng/mL) [17] = assay: as above; conditions: 72 h
NKL (IL-2 2.5 ng/mL) [18] = assay: as above; conditions: 72 h
[19] = test system: normal primary NK cells, pool 1 (3 donors) (IL-2 2.5 ng/mL); assay: as above; conditions: 72 h
DERL-7 (IL-2 2.5 ng/mL) [20] = assay: as above; conditions: 72 h
[21] = test system: normal primary NK cells, pool 3 (3 donors) (IL-2 2.5 ng/mL); assay: as above; conditions: 72 h
NK-92 (IL-2 2.5 ng/mL) [22] = assay: as above; conditions: 72 h
SNK-6 (IL-2 2.5 ng/mL) [23] = assay: as above; conditions: 72 h
[24] = test system: normal primary NK cells, pool 2 (3 donors) (IL-2 2.5 ng/mL); assay: as above; conditions: 72 h
[25] = test system: normal primary NK cells, pool 1 (3 donors), resting (IL-2 0 ng/mL); assay: as above; conditions: 72 h
KHYG-1 (IL-2 2.5 ng/mL) [26] = assay: as above; conditions: 72 h
IMC-1 (IL-2 20 ng/mL) [27] = assay: as above; conditions: 72 h
[28] = test system: normal NK cells expanded with K562-aAPC; assay: as above; conditions: 72 h, IL-2 2.5 ng/mL
Description: as §1

Cc1ccc(F)c(NC(=O)Nc2ccc(-c3cccc4[nH]nc(N)c34)cc2)c1 [Linifanib] (max concentration tested 1000 nM)
Conditions | drug sensitivity score
DERL-7 (IL-2 2.5 ng/mL) [7] | 0
IMC-1 (IL-2 20 ng/mL) [14] | 0
KAI3 (IL-2 2.5 ng/mL) [4] | 0.91
KHYG-1 (IL-2 2.5 ng/mL) [13] | 0
NK-92 (IL-2 2.5 ng/mL) [9] | 0.9
NK-YS (IL-2 2.5 ng/mL) [2] | 0
NKL (IL-2 2.5 ng/mL) [5] | 1.69
SNK-6 (IL-2 2.5 ng/mL) [10] | 0
YT (IL-2 2.5 ng/mL) [3] | 0
[1] | 0
[6] | 0.05
[8] | 0
[11] | 0
[12] | 3.83

percent inhibition of viability [%]
Conditions | 0.1 nM | 1 nM | 10 nM | 100 nM | 1000 nM
DERL-7 (IL-2 2.5 ng/mL) [20] | -3.48 | 1.81 | 3.09 | 2.4 | -1.99
IMC-1 (IL-2 20 ng/mL) [27] | -6.64 | -7.44 | -3.21 | -3.37 | 1.06
KAI3 (IL-2 2.5 ng/mL) [17] | -0.03 | -0.25 | -3.05 | 7.49 | 15.8
KHYG-1 (IL-2 2.5 ng/mL) [26] | -6.67 | -7.43 | -4.03 | -0.13 | 5.26
NK-92 (IL-2 2.5 ng/mL) [22] | -24.1 | -23.8 | -13.7 | -0.86 | 25.2
NK-YS (IL-2 2.5 ng/mL) [15] | -6.27 | -8.05 | -4.24 | 4.76 | 5.97
NKL (IL-2 2.5 ng/mL) [18] | -6.64 | -0.61 | 0.44 | 14.6 | 17.6
SNK-6 (IL-2 2.5 ng/mL) [23] | -2.9 | 19.3 | 2.79 | -3.57 | -1.81
YT (IL-2 2.5 ng/mL) [16] | -5.45 | -5.75 | -1.04 | 3.95 | 7.04
[19] | -6.2 | 0.66 | 14.2 | 7.19 | 6.85
[21] | -14.8 | -8.58 | 1.59 | 7.84 | 2.88
[24] | -14 | -8.34 | -3.37 | 7.22 | 4.22
[25] | -0.38 | 0.34 | 17.6 | 14.6 | 9.36
[28] | -6.15 | -1.69 | -7.22 | -1.27 | 8.03
